This assay concerns the target T1, human liver FBPase (Homo sapiens, UniProt P09467).
T1 construct: made in house; host or cells: E. coli
T1 sequence (P09467 2-338 limits assumed): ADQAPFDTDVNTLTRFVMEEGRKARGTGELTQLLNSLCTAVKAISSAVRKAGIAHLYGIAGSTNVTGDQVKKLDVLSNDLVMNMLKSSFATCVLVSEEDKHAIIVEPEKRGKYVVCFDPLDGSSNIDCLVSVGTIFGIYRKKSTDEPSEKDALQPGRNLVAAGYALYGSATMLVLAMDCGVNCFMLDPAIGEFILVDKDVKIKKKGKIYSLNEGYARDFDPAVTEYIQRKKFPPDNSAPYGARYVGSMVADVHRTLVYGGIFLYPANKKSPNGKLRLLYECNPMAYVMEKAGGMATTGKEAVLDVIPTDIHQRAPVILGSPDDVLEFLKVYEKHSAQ
As to the kind of experiment: FBPase assay (inorganic phosphate release, malachite green). The class given is biochemical. Conditions: recombinant human liver FBPase, 50 μM fructose-1,6-bisphosphate, read-out at 620 nm. As to the method:
The following tests were carried out for evaluating the inhibitory activity of the compounds of the present invention against human liver FBPase (Swissprot Data base reference PO9467, entry F16P_HUMAN).
Enzyme preparation: Human liver FBPase cDNA (NM_000507) was purchased from Origene Technologies, Inc, subcloned in a vector for expression in E. Coli., and sequenced. Recombinant human liver FBPase (hlFBPase) was purified according to the following protocol that uses heat denaturation similarly to that described by El-Maghrabi et. al. [El-Maghrabi, M. R. et al. “Isolation of a human liver fructose-1,6-bisphosphatase cDNA and expression of the protein in Escherichia coli.” J Biol Chem 268:9466-9472, 1993.]. […] Purity of the enzyme preparation was >90% as assessed by Mass spectrometry.
In vitro activity: Recombinant human liver FBPase (hlFBPase) activity was assayed through measuring the inorganic phosphate release that results from the hydrolysis of Fructose-1,6-bisphosphate by the enzyme. […] Anal. Biochem., 171:266-270, 1988], inorganic phosphate can be readily quantified by spectrophotometry at 620 nm after complexation with ammonium molybdate/malachite green reagent. […] Under these conditions, the assay was linear with time and able to detect FBPase inhibition after spectrophotometric read-out at 620 nm.

Usually IC50 stands for the concentration needed to halve the response being measured. For the molecule `Cc1cccc(S(=O)(=O)NC(=O)Nc2ncc(Br)s2)c1` [Example 5, N-[(5-Bromo-1,3-thiazol-2-yl)carbamoyl]-3-methylbenzenesulfonamide], the IC50 stood at 250 nM.

`COc1ccc(-c2sc(S(=O)(=O)NC(=O)Nc3ncc(Br)s3)cc2C)cc1` [Example 52, N-[(5-Bromo-1,3-thiazol-2-yl)carbamoyl]-5-(4-methoxyphenyl)-4-methyl-thiophene-2-sulfonamide]: the IC50 came out at 65 nM.

These data come from US7868030B2, “FBPase inhibitors for diabetes” (Hoffmann-La Roche Inc., priority 2006, dated 2011).
